Assays:
[1] = species: Gallus gallus; experiment: Binding affinity to histone H1 containing chromatin in chicken erythroleukemic cells mononucleosomes transformed with Marek's virus by Scatchard plot analysis
[2] = species: Gallus gallus; experiment: Binding affinity to histone H1 depleted chromatin in chicken erythroleukemic cells mononucleosomes transformed with Marek's virus by Scatchard plot analysis

COc1cccc2c1C(=O)c1c(O)c3c(c(O)c1C2=O)C[C@@](O)(C(C)=O)C[C@@H]3O[C@H]1C[C@H](N)[C@H](O)[C@H](C)O1
K [1]: 4.6 ×10⁴ /M | K [2]: 6.4 ×10⁴ /M
